Experimental data: patent US5063205A, “Uptake of iron by the body” (National Research Development Corporation, priority 1987, dated 1991)

What was measured:
[1] = test system: tied-off loop of intestine of an anaesthetised mouse; test: In vivo 59Fe3+ uptake from tied-off loop of intestine of anaesthetised mouse
Procedure: (§1) (A) Six week old, male To mice received doses averaging 1 n.mole/day of mouse epidermal growth factor in their drinking water during a period of up to 7 days, a control group of similar mice receiving plain drinking water. Iron absorption was then studied in the mice by both in vitro and in vivo techniques. The former, using techniques as described by Raja et al, Cell Biochem. and Funct., 1987, 5, 69-76, involved incubation of intestinal fragments from the mice with a 0-450 μM solution of a Fe^3+ chelate (the 2:1 nitrilotriacetate:iron(III) complex) whilst the latter, using techniques as described by Simpson and Peters, Biochim. Biophys. Acta., 1986, 856, 115-122), involved instillation of 50-100 μl of a 250 μM solution of the Fe^3+ chelate into a tied-off loop of intestine of an anaesthetised mouse.

duodenum = test: Duodenum wet weight and cell turnover (L-ornithine decarboxylase activity) after oral EGF; assay type: in vivo, mouse; settings: oral EGF about 1 n.mole/day, up to 7 days
[2] = test system: intestinal fragments from the mice; test: In vitro 59Fe3+ uptake by intestinal fragments from EGF-fed mice; set-up: species or system mouse; settings: intestinal fragments of mice given about 1 n.mole/day EGF in drinking water; 0-450 μM Fe3+ nitrilotriacetate chelate; n in parentheses
Procedure: as §1

[3] = given intravenously; cited from earlier work
mice = test: Whole body retention of intragastric 59Fe3+ by gamma counting; assay type: in vivo, mouse; settings: EGF in drinking water for 3 days, 12 hours fast, intragastric 1 μCurie 59Fe3+ as 50 μl of 100 μM chelate; whole body count
Procedure: (B) The procedure described under (A) was repeated but with the treated mice receiving the EGF for 3 rather than 7 days. After fasting for 12 hours both the EGF-treated and the control mice were treated intragastrically with 1 μCurie of ^59 Fe^3+ administered as 50 μl of a 100 μM aqueous solution of the radiolabelled 2:1 nitrilotriacetic acid:iron(III) complex. The mice were subjected to a whole body count by gamma counting at 3 hours and 7 days later.

[4] = mean ± SE, oral EGF about 1 n.mole/day in drinking water, 250 μM Fe3+ chelate in tied-off loop, p < 0.01 vs controls

epidermal growth factor [EGF]
Time course of total mucosal uptake of 59Fe3+ in vivo ([1]; EGF in drinking water for up to 7 days): maximal after 3 days | Total mucosal flux ([1]; mean ± SE, oral EGF about 1 n.mole/day in drinking water, 250 μM Fe3+ chelate in tied-off loop, p < 0.001 vs controls): 92.4 ± 8.4 pmol 59Fe3+ /mg tissue/10 minu | Carcass transfer [1, 4]: 35.3 ± 2.6 pmol 59Fe3+ /mg tissue/10 minu | Mucosal retention [1, 4]: 57.1 ± 6.3 pmol 59Fe3+ /mg tissue/10 minu | Cell turnover rates as reflected by L-ornithine decarboxylase activity in the duodenum (duodenum): elevated | Vmax for 59Fe3+ uptake [2]: 9.4 ± 1.1 pmol/mg/min | Half life in vivo [3]: about 21/2 | Percentage of the 59Fe3+ present at 3 hours which was retained after 7 days (mice): 21.0±3.2
